Laboratory results published in patent EP0540782B1, “Use of analogues of polyisoprenyl pyrophosphate for inhibiting protein isoprenylation” (NEDERLANDSE ORGANISATIE VOOR …, priority 1991, dated 1993).

Columns and labels:
squalene synthase = molecular target: T1, squalene synthase (Rattus norvegicus, UniProt Q02769); experiment: Inhibition of squalene synthase in rat liver microsomal preparations; assay type: biochemical
T1 construct: squalene synthase in rat liver microsomal preparations; from tissue; host or cells: rat liver microsomes
T1 sequence (Q02769 1-416): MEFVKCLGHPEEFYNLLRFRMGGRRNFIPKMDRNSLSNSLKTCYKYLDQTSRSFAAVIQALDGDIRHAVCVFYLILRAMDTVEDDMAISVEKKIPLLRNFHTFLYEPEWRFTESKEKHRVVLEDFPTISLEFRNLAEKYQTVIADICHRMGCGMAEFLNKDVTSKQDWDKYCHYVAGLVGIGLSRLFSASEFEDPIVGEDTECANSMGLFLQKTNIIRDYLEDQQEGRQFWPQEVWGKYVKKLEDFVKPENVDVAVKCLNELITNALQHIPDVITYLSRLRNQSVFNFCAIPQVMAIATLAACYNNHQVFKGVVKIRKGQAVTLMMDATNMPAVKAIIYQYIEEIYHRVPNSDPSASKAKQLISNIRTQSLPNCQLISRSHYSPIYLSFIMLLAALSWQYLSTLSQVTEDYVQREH

[1] = molecular target: farnesyl: protein transferase (Oryctolagus cuniculus, UniProt G1SFC8+G1T7D9); experiment: Inhibition of farnesylation of p21ras precursor (H-ras protein) by farnesyl: protein transferase in rabbit reticulocyte lysate, [3H]-FPP incorporation; conditions: read-out: IC50-values, H-ras protein 30 µg/ml, 1 µM [3H]-farnesyl pyrophosphate, 37°C for 30 min
Sequence of farnesyl: protein transferase (G1T7D9 entry or part of it, one chain of several): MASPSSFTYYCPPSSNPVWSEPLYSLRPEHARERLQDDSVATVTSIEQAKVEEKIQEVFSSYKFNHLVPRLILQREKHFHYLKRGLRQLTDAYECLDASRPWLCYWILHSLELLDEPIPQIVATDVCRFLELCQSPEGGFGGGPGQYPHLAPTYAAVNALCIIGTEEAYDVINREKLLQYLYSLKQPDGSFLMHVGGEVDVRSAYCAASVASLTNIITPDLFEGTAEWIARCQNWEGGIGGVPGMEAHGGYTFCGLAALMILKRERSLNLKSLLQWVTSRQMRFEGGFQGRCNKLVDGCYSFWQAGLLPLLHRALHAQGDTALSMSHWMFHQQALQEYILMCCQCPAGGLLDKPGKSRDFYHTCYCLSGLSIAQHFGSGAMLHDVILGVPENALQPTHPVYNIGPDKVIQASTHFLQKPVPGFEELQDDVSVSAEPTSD

Compound	IC50 (squalene synthase)	IC50 [1]
CC(C)=CCCC(C)=CCCC(C)=CCP(=O)(O)OP(=O)(O)O [compound 3, farnesylphosphonophosphate]	120 µM	< 1 µM
CC(C)=CCCC(C)=CCCC(C)=CCCP(=O)(O)OP(=O)(O)O [compound 1, farnesylmethylphosphonophosphate]	480 µM	4 µM
